Measured values taken from patent publication US20100041647A1, “3-Substituted-[1,2,3]-Benzotriazinone compounds for enhancing glutamatergic synaptic responses” (CORTEX PHARMACEUTICALS, INC., priority 2007, published 2010).

Assays:
[1] = test system: AMPA receptor; experiment: Patch clamp electrophysiology assay (glutamate-induced whole-cell current in cultured cortical neurons); assay type: cell-based; settings: Concentration at which glutamate induced current is increased by 100%; 500 μM glutamate, rat cortical neurons
Method: Cortical cells were prepared from day 18-19 embryonic Sprague-Dawley rats and recorded after 3 days in culture. The extracellular solution (ECS) contained (in mM): NaCl (145), KCl (5.4), HEPES (10), MgCl2 (0.8), CaCl2 (1.8), glucose (10), sucrose (30); pH. 7.4. In order to block the voltage-gated sodium currents, 40 nM TTX was added to the recording solution. The intracellular solution contained (in mM): K-gluconate (140), HEPES (20), EGTA (1.1), phosphocreatine (5), MgATP (3), GTP (0.3), MgCl2 (5), and CaCl2 (0.1); pH: 7.2. All test compound and glutamate solutions were made-up in the extracellular solution.
The whole-cell current was measured with patch-clamp amplifier (Axopatch 200B), filtered at 2 kHz, digitized at 5 kHz and recorded on a PC with pClamp 8. The cells were voltage-clamped at −80 mV. Solutions were applied by DAD-12 system. A baseline response for each cell was recorded using a I s pulse of 500 μM glutamate dissolved in ECS. Responses to test compound were then determined by application of a 10 s pulse of test compound followed by a 1 s pulse of the same concentration of test compound plus 500 μM glutamate and then 10 s of saline. This pulse sequence was repeated until a stable reading was obtained, or until sufficient data points were measured to allow extrapolation to a calculated maximum change.
The mean value of plateau current between 600 ms to 900 ms after application of glutamate or test compound plus glutamate was calculated and used as the parameter to measure the drug effect. The plateau responses in the presence of varying concentrations of test compound were divided by the baseline response in order to calculate the percentage increase. Compounds are deemed active in this test if, at a test concentration of 3 μM or less, they produce a greater than 100% increase in the value of the steady-state current measured due to application of glutamate alone. The concentration at which the glutamate induced current is increased by 100% is commonly referred to as the EC2x value.

[2] = test system: AMPA receptor; experiment: In vivo electrophysiology (field EPSP in dentate gyrus of anesthetized animals); set-up: species or system rat
Method: The physiological effects of invention compounds were tested in vivo in anesthetized animals according to the following procedures.
Animals are maintained under anesthesia by phenobarbital administered using a Hamilton syringe pump. Stimulating and recording electrodes are inserted into the perforant path and dentate gyrus of the hippocampus, respectively. Once electrodes are implanted, a stable baseline of evoked responses are elicited using single monophasic pulses (100 μs pulse duration) delivered at 3/min to the stimulating electrode. Field EPSPs are monitored until a stable baseline is achieved (about 20-30 min), after which a solution of test compound in HPCD is injected intraperitoneally and evoked field potentials are recorded. Evoked potentials are recorded for approximately 2 h following drug administration or until the amplitude of the field EPSP returns to baseline. In the latter instance, it is common that an iv administration is also carried out with an appropriate dose of the same test compound.

[3] = test system: AMPA receptors; experiment: Rat hippocampal slice assay (field EPSP in CA1); assay type: cell-based
Method: In another test, excitatory responses (field EPSPs) were measured in hippocampal slices, which were maintained in a recording chamber continuously perfused with artificial cerebrospinal fluid (ACSF). During a 15-30 minute interval, the perfusion medium was switched to one containing various concentrations of the test compounds. Responses collected immediately before and at the end of drug perfusion were superimposed in order to calculate the percent increase in EPSP amplitude.
The field EPSP (excitatory post-synaptic potential) recorded in field CA1 after stimulation of CA3 axons is known to be mediated by AMPA receptors, which are present in the synapses (Kessler et al., Brain Res. 560: 337-341 (1991)). Drugs that selectively block the receptor selectively block the field EPSP (Muller et al., Science, supra). […] These effects are mirrored in the field EPSP (see, for example, Staubli et al., Psychobiology, supra; Xiao et al., Hippocampus, supra; Staubli et al., Hippocampus 2: 4958 (1992)).
To obtain data for the activity of invention compounds on synaptic responses, a bipolar nichrome stimulating electrode was positioned in the dendritic layer (stratum radiatum) of the hippocampal subfield CA1 close to the border of subfield CA3, as described in Example 30. Current pulses (0.1 msec) through the stimulating electrode activate a population of the Schaffer-commissural (SC) fibers, which arise from neurons in the subdivision CA3 and terminate in synapses on the dendrites of CA1 neurons. Activation of these synapses causes them to release the transmitter glutamate. Glutamate binds to post-synaptic AMPA receptors, which then transiently open an associated ion channel and permit a sodium current to enter the postsynaptic cell. This current results in a voltage in the extracellular space (the field EPSP), which is recorded by a high impedance recording electrode positioned in the middle of the stratum radiatum of CA1.
The intensity of the stimulation current was adjusted to produce half-maximal EPSPs (typically about 1.5-2.0 mV). Paired stimulation pulses were given every 40 sec with an interpulse interval of 200 msec, as described further in Example 30.
Hippocampal slices were maintained in a recording chamber continuously perfused with artificial cerebrospinal fluid (ACSF). During 15-30 minute intervals, the perfusion medium was switched to one containing various concentrations of the test compounds. Responses collected immediately before and at the end of drug perfusion were superimposed in order to calculate the percent increase in EPSP amplitude.

Structure (SMILES) | In vitro Patch Clamp Electrophysiology EC2x [1] [nM] | % increase in the amplitude of the field EPSP in rat dentate gyrus ([2]; 5 mpk i.p.) [%^3] | % Increase in the amplitude of the field EPSP in the CA1 region of rat hippocampal slice ([3]; @ 3 μM) [% @ 3 μM] | % Increase in the amplitude of the field EPSP in the CA1 region of rat hippocampal slice ([3]; @ 10 μM) [% @ 10 μM] | % increase in the amplitude of the field EPSP in rat dentate gyrus ([2]; 5 mpk i.v.) [%^4]
C[C@H](Cn1ncnn1)n1nnc2cc3c(cc2c1=O)OC1COCCN1C3=O (stereo partly drawn) [Example 64, 3-[(2R)-1-(2H-Tetrazol-2-yl)propan-2-yl]-6a,7,9,10-tetrahydro-3H-[1,4]oxazino[3′,4′:2,3][1,3]oxazino[6,5-g][1,2,3]benzotriazine-4,12-dione] | 170 | 30 | – | – | –
C[C@H](Cn1ncnn1)n1nnc2cc3c(cc2c1=O)OC1CCCN1C3=O (stereo partly drawn) [Example 37A, 3-[(2R)-1-(2H-Tetrazol-2-yl)propan-2-yl]-6a,7,8,9-tetrahydro-3H-pyrrolo[2′,1′:2,3][1,3]oxazino[6,5-g][1,2,3]benzotriazine-4,11-dione] | 40 | 39 | – | – | –
O=C1c2cc3nnn(CCc4cccc(F)c4)c(=O)c3cc2OC2CCCN12 (stereo not drawn) [Example 1, 3-[2-(3-Fluorophenyl)ethyl]-6a,7,8,9-tetrahydro-3H-pyrrolo[2′,1′:2,3][1,3]oxazino[6,5-g][1,2,3]benzotriazine-4,11-dione] | 3 | 24 | 9 | – | –
N#CCn1nnc2cc3c(cc2c1=O)OC1CCCN1C3=O (stereo not drawn) [Example 10, (4,11-Dioxo-4,6a,7,8,9,11-hexahydro-3H-pyrrolo[2′,1′:2,3][1,3]oxazino[6,5-g][1,2,3]benzotriazin-3-yl)acetonitrile] | 190 | 12 | – | 10 | –
C#C[C@H](Cc1cc(F)cc(F)c1)n1nnc2cc3c(cc2c1=O)O[C@@H]1CCCN1C3=O [Example 16, (6aR)-3-[(2S)-1-(3,5-Difluorophenyl)but-3-yn-2-yl]-6a,7,8,9-tetrahydro-3H-pyrrolo[2′,1′:2,3][1,3]oxazino[6,5-g][1,2,3]benzotriazine-4,11-dione] | 3 | 34 | 1 | – | –
C[C@H](CSC#N)n1nnc2cc3c(cc2c1=O)OC1CCCN1C3=O (stereo partly drawn) [Example 35, (2R)-2-(4,11-Dioxo-4,6a,7,8.9,11-hexahydro-3H-pyrrolo[2′,1′:2,3][1,3]oxazino[6,5-g][1,2,3]benzotriazin-3-yl)propyl thiocyanate] | 80 | 19 | – | – | –
C#CCn1nnc2cc3c(cc2c1=O)OC1CCCN1C3=O (stereo not drawn) [Example 9, 3-Prop-2-yn-1-yl-6a,7,8,9-tetrahydro-3H-pyrrolo[2′,1′:2,3][1,3]oxazino[6,5-g][1,2,3]benzotriazine4,11-dione] | 140 | – | 11 | – | 11
O=C1c2cc3nnn(C4CC4)c(=O)c3cc2OC2CCCN12 (stereo not drawn) [Example 4, 3-Cyclopropyl-6a,7,8,9-tetrahydro-3H-pyrrolo[2′,1′:2,3][1,3]oxazino[6,5-g][1,2,3]benzotriazine-4,11-dione] | 400 | – | 5 | – | 19
O=C1c2cc3nnn(CCn4cccn4)c(=O)c3cc2OC2CCCN12 (stereo not drawn) [Example 36, 3-[2-(1H-Pyrazol-1-yl)ethyl]-6a,7,8,9-tetrahydro-3H-pyrrolo[2′,1′:2,3][1,3]oxazino[6,5-g][1,2,3]benzotriazine-4,11-dione] | 100 | – | 12 | – | 18
